Measured values published in US20250099478A1, “PLASMA KALLIKREIN INHIBITORS” (Merck Sharp & Dohme LLC, priority 2022, published 2025).

Tests used:
[1] = target: T1, Human plasma kallikrein (Homo sapiens, UniProt P03952); assay: Plasma Kallikrein Assay; format: biochemical; conditions: purified Human plasma kallikrein 0.5 nM, substrate Acetyl-K-P-R-AFC; read-out: PKal IC50
T1 construct: yields a heavy chain (371 amino acids) and a light chain (248 amino acids); purchased Enzyme Research Laboratories
How it was run: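 Purified human plasma kallikrein (0.5 nM) hydrolysing fluorogenic Acetyl-K-P-R-AFC ([…]) in 50 mM HEPES pH 7.4, 150 mM NaCl, 5 mM CaCl2, 0.1% PEG 8000, at rt or 37 °C after enzyme–inhibitor equilibration. IC50 from four-parameter logistic fit; Ki via Cheng–Prusoff.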

[2] = target: T2, human factor XIa (Homo sapiens, UniProt P03951); assay: Factor XIa Assay; format: biochemical; conditions: human factor XIa 0.04 nM, substrate GPR-AFC, 25° C.
T2 construct: with human (0.04 nM) factor XIa
Method: The effectiveness of a compound of the present invention as an inhibitor of Coagulation factor XIa can be determined using a relevant purified serine protease, and an appropriate synthetic substrate. The rate of hydrolysis of the chromogenic or fluorogenic substrate by the relevant serine protease was measured both in the absence and presence of compounds of the present invention. Assays were conducted at rt or at 37° C. […] A decrease in the rate of fluorescence change in the presence of inhibitor is indicative of enzyme inhibition. Such methods are known to one skilled in the art. The results of this assay are expressed as the half-maximal inhibitory concentrations (IC50), or the inhibitory constant, Ki.
Compounds were pre-incubated for 30 min at 25° C. with human (0.04 nM) factor XIa in 50 mM HEPES buffer with 150 mM sodium chloride, 5 mM calcium chloride, 0.1% PEG 8000, pH 7.4. factor XIa enzymatic activity was determined by addition of the substrate glycine-proline-arginine-7-amido-4-trifluoromethylcoumarin (GPR-AFC) and measurement of the fluorescence at 400/505 nm after a 60 min incubation at 25° C. The % inhibition for each data point was calculated from the data and analyzed using the log (inhibitor) vs. response four parameters equation to determine the half-maximal inhibitory concentrations (IC50). The IC50 were converted to equilibrium inhibitory constants (Ki) using the Cheng-Prusoff equation.

T1 sequence (P03952 391-638 limits assumed): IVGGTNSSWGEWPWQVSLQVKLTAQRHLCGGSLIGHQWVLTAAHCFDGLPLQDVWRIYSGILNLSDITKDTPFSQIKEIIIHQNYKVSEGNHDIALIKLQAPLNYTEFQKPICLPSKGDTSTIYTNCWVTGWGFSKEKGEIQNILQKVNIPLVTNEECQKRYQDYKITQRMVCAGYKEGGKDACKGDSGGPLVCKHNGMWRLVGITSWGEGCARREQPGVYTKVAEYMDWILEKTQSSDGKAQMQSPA
T1 sequence (P03952 20-390 partner limits assumed): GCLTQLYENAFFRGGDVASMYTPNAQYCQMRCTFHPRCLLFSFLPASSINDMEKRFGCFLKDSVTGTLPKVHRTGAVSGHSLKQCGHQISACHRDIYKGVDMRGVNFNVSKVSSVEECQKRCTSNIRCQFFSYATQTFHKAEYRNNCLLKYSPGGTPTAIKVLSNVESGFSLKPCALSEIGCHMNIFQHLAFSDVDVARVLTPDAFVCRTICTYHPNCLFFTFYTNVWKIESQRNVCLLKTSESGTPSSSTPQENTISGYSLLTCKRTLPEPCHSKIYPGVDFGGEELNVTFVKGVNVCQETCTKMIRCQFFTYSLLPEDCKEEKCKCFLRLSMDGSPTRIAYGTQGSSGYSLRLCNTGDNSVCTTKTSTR
T2 sequence (P03951 388-625 limits assumed): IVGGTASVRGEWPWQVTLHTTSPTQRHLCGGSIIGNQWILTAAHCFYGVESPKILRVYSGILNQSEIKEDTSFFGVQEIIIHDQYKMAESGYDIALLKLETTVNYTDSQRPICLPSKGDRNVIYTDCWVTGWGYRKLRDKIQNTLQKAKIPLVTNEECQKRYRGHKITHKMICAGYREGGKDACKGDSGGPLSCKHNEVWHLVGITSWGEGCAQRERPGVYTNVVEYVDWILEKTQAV
T2 sequence (P03951 19-387 partner limits assumed): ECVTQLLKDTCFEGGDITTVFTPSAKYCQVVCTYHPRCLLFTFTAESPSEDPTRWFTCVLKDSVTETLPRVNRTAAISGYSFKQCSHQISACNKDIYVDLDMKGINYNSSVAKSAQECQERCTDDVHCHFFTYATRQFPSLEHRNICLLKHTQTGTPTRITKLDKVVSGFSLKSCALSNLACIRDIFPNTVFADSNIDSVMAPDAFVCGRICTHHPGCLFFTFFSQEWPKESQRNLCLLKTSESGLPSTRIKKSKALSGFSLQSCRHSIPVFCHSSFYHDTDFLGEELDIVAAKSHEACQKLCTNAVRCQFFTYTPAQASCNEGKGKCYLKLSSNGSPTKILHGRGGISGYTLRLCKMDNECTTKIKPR

| Structure (SMILES) | IC50 [1] [nM] | IC50 [2] [nM] |
| --- | --- | --- |
| CO[C@@H](C)[C@@H](c1ccccc1)n1cc(C(=O)N2CCC[C@@]3(C2)OC(=O)Nc2ccc(Cl)c(F)c23)cn1 [Example 11, (R)-6-Chloro-5-fluoro-1′-(1-((1R,2S)-2-methoxy-1-phenylpropyl)-1H-pyrazole-4-carbonyl)spiro[benzo[d][1,3]oxazine-4,3′-piepridine]-2(1H)-one] | 20 | 4330 |
| O=C1Nc2ccc(Cl)c(F)c2[C@@]2(CCCN(C(=O)c3nc(Cc4ccccc4)c[nH]3)C2)O1 [Example 65, (R)-1′-(4-Benzyl-1H-imidazole-2-carbonyl)-6-chloro-5-fluorospiro[benzo[d][1,3]oxazine-4,3′-piperidin]-2(1H)-one] | 19.3 | 1770 |
| CC1(C)CN(C(=O)c2nnc(Cc3ccccc3)[nH]2)C[C@]2(C1)OC(=O)Nc1ccc(Cl)c(F)c12 [Example 89, (R)-1′-(5-Benzyl-4H-1,2,4-triazole-3-carbonyl)-6-chloro-5-fluoro-5′,5′-dimethylspiro[benzo[d][1,3]oxazine-4,3′-piperidin]-2(1H)-one] | 14.9 | 7200 |
| O=C1Nc2ccc(Cl)c(F)c2[C@@]2(CCCN(C(=O)c3nnc(C(c4ccccc4)C4CC4)[nH]3)C2)O1 (single isomer, unassigned) [Example 107] | 11.2 | 1910 |
| CCC(c1ccc2[nH]ncc2c1)n1cc(C(=O)N2CCC[C@@]3(C2)OC(=O)Nc2ccc(Cl)c(F)c23)cn1 (single isomer, unassigned) [Example 40] | 7.1 | 1000 |
| CCC(c1cc(C)c2nc[nH]c2c1)n1cc(C(=O)N2CCC[C@@]3(C2)OC(=O)Nc2ccc(Cl)c(F)c23)cn1 (single isomer, unassigned) [Example 46, (4R)-6-Chloro-5-fluoro-1′-(1-((S or R)-1-(4-methyl-1H-benzo[d]imidazol-6-yl)propyl)-1H-pyrazole-4-carbonyl)spiro[benzo[d][1,3]oxazine-4,3′-piperidin]-2(1H)-one] | 1.2 | 846 |
| COC1(CC(c2ccccc2)c2c[nH]c(C(=O)N3CCC[C@@]4(C3)OC(=O)Nc3ccc(Cl)c(F)c34)n2)CC1 (single isomer, unassigned) [Example 75, (R)-6-Chloro-5-fluoro-1′-(4-((R or S)-2-(1-methoxycyclopropyl)-1-phenylethyl)-1H-imidazole-2-carbonyl)spiro[benzo[d][1,3]oxazine-4,3′-piperidin]-2(1H)-one] | 5.7 | 322 |
| O=C1Nc2ccc(Cl)c(F)c2[C@@]2(CCCN(C(=O)c3cnc(C(c4ccc(F)cc4)C(F)(F)F)[nH]3)C2)O1 (single isomer, unassigned) [Example 83] | 21.3 | 2700 |
| CCC(c1ccc(F)cc1)c1c[nH]c(C(=O)N2CCC[C@@]3(C2)OC(=O)Nc2ccc(Cl)c(F)c23)n1 (single isomer, unassigned) [Example 71, (R)-6-Chloro-5-fluoro-1′-(4-((R or S)-1-(4-fluorophenyl)propyl)-1H-imidazole-2-carbonyl)spiro[benzo[d][1,3]oxazine-4,3′-piperidin]-2(1H)-one] | 5.5 | 995 |
| O=C1Nc2ccc(Cl)c(F)c2[C@@]2(CCCN(C(=O)c3nnc(C(CC(F)(F)F)c4ccccc4)[nH]3)C2)O1 (single isomer, unassigned) [Example 98] | 1.3 | 362 |
| CCC(c1ccc(F)cc1)c1nnc(C(=O)N2CC(C)(C)C[C@@]3(C2)OC(=O)Nc2ccc(Cl)c(F)c23)[nH]1 (single isomer, unassigned) [Example 103] | 7 | 1950 |
| CCCCC(O)(c1ccc(F)cc1)c1ncc(C(=O)N2CCC[C@@]3(C2)OC(=O)Nc2ccc(Cl)c(F)c23)[nH]1 (stereo partly drawn) [Example 81, (3′R)-6-Chloro-5-fluoro-1′-(2-(1-(4-fluorophenyl)-1-hydroxypentyl)-1H-imidazole-5-carbonyl)spiro[benzo[d][1.3]oxazine-4,3′-piperidin]-2(1H)-one] | 8.7 | 2300 |
| O=C1Nc2ccc(Cl)c(F)c2[C@@]2(CCCN(C(=O)c3nnc(C(Cc4ccccc4)c4ccccc4)[nH]3)C2)O1 (single isomer, unassigned) [Example 105] | 17.3 | 3600 |
| CCC(c1ccc2cnccc2c1)n1cc(C(=O)N2CCC[C@@]3(C2)OC(=O)Nc2ccc(Cl)c(F)c23)cn1 (single isomer, unassigned) [Example 36] | 2.8 | 2490 |
| CCC(c1ccc2[nH]ncc2c1)n1cc(C(=O)N2CCC[C@@]3(C2)OC(=O)Nc2ccc(Cl)c(F)c23)cn1 (single isomer, unassigned) [Example 39] | 4 | 1350 |
| O=C1Nc2ccc(Cl)c(F)c2[C@@]2(CCCN(C(=O)c3cnn([C@@H](CC4CC4)c4ccccc4)c3)C2)O1 (single isomer, unassigned) [Example 1] | 6.9 | 1570 |
| O=C1Nc2ccc(Cl)c(F)c2[C@@]2(CCCN(C(=O)c3nnc(C4(c5ccc(F)cc5)CCC4)[nH]3)C2)O1 [Example 88, (R)-6-Chloro-5-fluoro-1′-(5-(1-(4-fluorophenyl)cyclobutyl)-4H-1,2,4-triazole-3-carbonyl)spiro[benzo[d][1,3]oxazine-4,3′-piperidin]-2(1H)-one] | 13.7 | 4440 |
| O=C1Nc2ccc(Cl)c(F)c2[C@@]2(CCCN(C(=O)c3cnc(C(O)c4ccc(F)cc4)[nH]3)C2)O1 (single isomer, unassigned) [Example 78] | 13.7 | 3850 |
| CCC(c1ccc(F)cc1)c1c[nH]c(C(=O)N2CCC[C@@]3(C2)OC(=O)Nc2ccc(Cl)c(F)c23)n1 (single isomer, unassigned) [Example 72, (R)-6-Chloro-5-fluoro-1′-(4-((S or R)-1-(4-fluorophenyl)propyl)-1H-imidazole-2-carbonyl)spiro[benzo[d][1,3]oxazine-4,3′-piperidin]-2(1H)-one] | 9.3 | 1430 |
| O=C1Nc2ccc(Cl)c(F)c2[C@@]2(CC(C3CC3)CN(C(=O)c3cnn(Cc4ccccc4)c3)C2)O1 (stereo partly drawn) [Example 22, (4R)-1′-(1-Benzyl-1H-pyrazole-4-carbonyl)-6-chloro-5′-cyclopropyl-5-fluorospiro[benzo[d][1,3]oxazine-4,3′-piperidin]-2(1H)-one] | 7.9 | 1370 |
| CCC(c1cccc(S(C)(=O)=O)c1)n1cc(C(=O)N2CCC[C@@]3(C2)OC(=O)Nc2ccc(Cl)c(F)c23)cn1 (single isomer, unassigned) [Example 30] | 5.7 | 4350 |
| CCC(c1ccc(F)cc1)n1cc(C(=O)N2CCC[C@@]3(C2)OC(=O)Nc2ccc(Cl)c(F)c23)cn1 (single isomer, unassigned) [Example 25] | 10.4 | 210 |
| CCC(c1cc(C)c2nc[nH]c2c1)n1cc(C(=O)N2CCC[C@@]3(C2)OC(=O)Nc2ccc(Cl)c(F)c23)cn1 (single isomer, unassigned) [Example 45, (4R)-6-Chloro-5-fluoro-1′-(1-((R or S)-1-(4-methyl-1H-benzo[d]imidazol-6-yl)propyl)-1H-pyrazole-4-carbonyl)spiro[benzo[d][1,3]oxazine-4,3′-piperidin]-2(1H)-one] | 0.8 | 1420 |
| CCC(c1ccc(F)cc1)c1c[nH]c(C(=O)N2CC[C@@]3(C2)OC(=O)Nc2ccc(Cl)c(F)c23)n1 (single isomer, unassigned) [Example 66, (4R)-6-Chloro-5-fluoro-1′-(4-((S or R)-1-(4-fluorophenyl)propyl)-1H-imidazole-2-carbonyl)spiro[benzo[d][1,3]oxazine-4,3′-pyrrolidin]-2(1H)-one] | 32.5 | 1360 |
| O=C1Nc2ccc(Cl)c(F)c2[C@@]2(CCCN(C(=O)c3cnc([C@@H](O)c4ccc(F)cc4)[nH]3)C2)O1 [Example 77] | 56.6 | 8130 |
| CCC(c1ccnc(C(F)(F)F)c1)c1c[nH]c(C(=O)N2CCC[C@@]3(C2)OC(=O)Nc2ccc(Cl)c(F)c23)n1 (single isomer, unassigned) [Example 73, (R)-6-Chloro-5-fluoro-1′-(4-((R or S)-1-(2-(trifluoromethyl)pyridin-4-yl)propyl)-1H-imidazole-2-carbonyl)spiro[benzo[d][1,3]oxazine-4,3′-piperidin]-2(1H)-one] | 8.2 | 2050 |
| O=C1Nc2ccc(Cl)c(F)c2[C@@]2(CCCN(C(=O)c3cnc(Cc4ccc(F)cc4)[nH]3)C2)O1 [Example 76, (R)-6-Chloro-5-fluoro-1′-(2-(4-fluorobenzyl)-1H-imidazole-5-carbonyl)spiro[benzo[d][1,3]oxazine-4,3′-piperidin]-2(1H)-one] | 16.1 | 4580 |
